In assay [1] the target is Tyrosine-protein kinase BTK (Homo sapiens, UniProt Q06187). The assay can be described thus: Biochemical Evaluation.
The target of assay [2] is Tyrosine-protein kinase BTK [C481S] (Homo sapiens, UniProt Q06187, C481S). Put plainly: Biochemical Evaluation.
Tyrosine-protein kinase BTK [C481S], sequence (Q06187 2-659 C481S limits assumed): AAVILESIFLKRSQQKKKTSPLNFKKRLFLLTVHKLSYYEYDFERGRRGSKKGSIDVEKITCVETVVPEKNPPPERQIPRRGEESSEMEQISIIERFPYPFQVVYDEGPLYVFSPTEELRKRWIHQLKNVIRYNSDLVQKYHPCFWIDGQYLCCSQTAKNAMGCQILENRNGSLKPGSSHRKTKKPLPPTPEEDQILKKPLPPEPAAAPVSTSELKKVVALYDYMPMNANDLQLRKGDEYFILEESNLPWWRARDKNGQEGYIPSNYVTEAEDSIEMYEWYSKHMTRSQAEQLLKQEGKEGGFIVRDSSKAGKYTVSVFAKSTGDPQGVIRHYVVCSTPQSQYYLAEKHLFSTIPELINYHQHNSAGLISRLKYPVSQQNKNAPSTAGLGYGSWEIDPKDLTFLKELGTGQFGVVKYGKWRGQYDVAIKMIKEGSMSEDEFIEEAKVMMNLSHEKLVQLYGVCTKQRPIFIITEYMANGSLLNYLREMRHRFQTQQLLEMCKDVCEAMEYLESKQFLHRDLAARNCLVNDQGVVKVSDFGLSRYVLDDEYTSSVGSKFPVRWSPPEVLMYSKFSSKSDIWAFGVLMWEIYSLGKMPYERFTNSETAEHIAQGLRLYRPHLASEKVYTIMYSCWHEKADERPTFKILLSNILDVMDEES

Tyrosine-protein kinase BTK, sequence (Q06187 whole entry): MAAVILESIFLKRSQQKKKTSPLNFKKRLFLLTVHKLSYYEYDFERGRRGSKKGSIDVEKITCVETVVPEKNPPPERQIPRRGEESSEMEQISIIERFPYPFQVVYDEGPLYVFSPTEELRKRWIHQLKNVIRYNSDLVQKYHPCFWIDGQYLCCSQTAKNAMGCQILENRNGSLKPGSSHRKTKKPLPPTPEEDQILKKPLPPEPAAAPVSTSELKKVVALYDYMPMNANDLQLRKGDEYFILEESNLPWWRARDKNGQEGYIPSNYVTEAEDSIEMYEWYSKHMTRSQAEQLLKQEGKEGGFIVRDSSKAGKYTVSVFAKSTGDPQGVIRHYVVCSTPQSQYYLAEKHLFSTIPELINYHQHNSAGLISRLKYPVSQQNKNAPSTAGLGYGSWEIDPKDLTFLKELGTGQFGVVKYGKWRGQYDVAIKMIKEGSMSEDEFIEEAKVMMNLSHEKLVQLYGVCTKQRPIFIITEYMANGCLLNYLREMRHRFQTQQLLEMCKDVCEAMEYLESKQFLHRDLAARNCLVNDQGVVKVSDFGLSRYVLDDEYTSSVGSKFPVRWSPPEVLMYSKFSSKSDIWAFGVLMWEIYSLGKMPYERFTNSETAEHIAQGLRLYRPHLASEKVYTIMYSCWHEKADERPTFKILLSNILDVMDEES

For the molecule `Nc1ncnc2c1c(-c1ccc(Oc3ccccc3)cc1)nn2[C@H]1CC[C@@H](O)CC1` [US12384786, Example 8A], the IC50 in assay [1] came to 2.5 nM; in assay [2], 0.7 nM.

One may read the IC50 as the concentration needed to halve the response being measured.

For the origin of these results see BindingDB's records for patent US12384786 (Minghui Pharmaceutical (Shanghai), 2025).
